Assay results: patent publication US20180111991A1, “MODULATORS OF ACTIVIN AND METHODS FOR MODULATING IMMUNE RESPONSES AND T FOLLICULAR HELPER CELLS” (LA JOLLA INSTITUTE FOR ALLERGY AND IMMUNOLOGY, priority 2014, published 2018)
Entries after “also recorded” stand apart in the source; their conditions may differ.

Key:
[1] = tested on: SMAD2/3; assay: Analysis of phosphorylated SMAD2/3 in tonsil CD4 T cells; type: cell-based, human; details: for P-SMAD induction: activin A
Excerpt: (§1) Fresh PBMCs and tonsil mononuclear cells were serum-starved over night in AIM-V medium. […] Following stimulation, the cells were fixed in BD Phosflow™ Fix Buffer I (BD Biosciences), then permeabilized using BD Phosflow™ Perm Buffer III (BD Biosciences) following manufacture's instruction.

[2] = tested on: human naïve CD4 T cells; assay: qPCR / flow cytometry of LIF, PRDM1, SLAMF1, ITGβ7 on day 3 differentiated cells; type: cell-based; details: for PRDM1 (BLIMP1) expression: RNA-seq and qPCR
Excerpt: FIG. 2A-O: Activin A plays a synergic role with IL-12 and molds the human Tfh gene program. (A-B) Bead purified naïve CD4 T cells from multiple healthy subjects were stimulated by anti CD3/CD28 beads on 96 well plates, in the presence of commercial human recombinant activin A, with or without IL-12. […] A representative donor is shown in (A). Data from 12 donors from 6 independent experiments are shown in (B). […] Data from one experiment representative of two are depicted (n=3). (D) Cells were cultured in vitro with different doses of activin A combined with a fixed amount of IL-12 for 5 days in the presence of anti-activin A mAb MOR8806 (block) or isotype control mAb (isotype). Graphs show mean and SEM from 3 independent experiments (n=8). Dotted lines indicate the average percentages of PD-1^+CXCR5^+ cells induced by IL-12 with isotype control mAb from 8 donors. (E) CCR7 MFI on day 5 in vitro differentiated cells. […] (J) RNA-seq analysis on day 3 in vitro differentiated cells. The “Volcano” plots show the absolute gene expression data set (RPKM) from cells differentiated with activin A and IL-12 versus cells differentiated with beads only. […] (K) Heat-map showing absolute expression (RPKM) of selected Tfh signature genes on cells differentiated with beads only, IL-12, activin A or activin A+IL12. (L and N) Relative expression (2-ΔCt) of LIF and PRDM1 was determined by qPCR. (M and O) SLAMF1 and ITGβ7 expression by flow cytometry. In (L) to (0) all the data were obtained from day 3 in vitro differentiated cells and are from at least 3 or more independent experiments (n=9 or higher). Bars show mean and SEM. * p<0.05, ** p<0.01 and *** p<0.001. RNA was isolated by QIAGEN RNeasy spin columns and reverse-transcribed into cDNA using Superscript II Reverse Transcriptase (Invitrogen). Quantitative real-time PCR of ACTB, LIF, and PRDM1 was performed using the following primers: ACTB forward, [NT], ACTB reverse, [NT] forward, [NT] reverse, [NT]; and PRDM1 forward, [NT], PRDM1 reverse [NT]. Real-time PCR was set up with Applied Biosystem SYBR Green Master Mix.

[3] = tested on: mouse naïve CD4 T cells; assay: Mouse CD4 T cell differentiation; type: cell-based, mouse (BALB/c, C57BL/6)
Description: Naïve CD4^+ T cells were isolated from spleen using the Naïve CD4^+ T cell isolation kit (Stem Cell). Purity was 92% or higher. Naïve CD4^+ T cells (2×10^5 cells/well) were cultured for 3 days with recombinant human/mouse/rat activin A (50 ng/ml, R&D Systems), recombinant mouse IL-12 (10 ng/ml, Peprotech), and/or recombinant mouse IL-6 (20 ng/ml, Peprotech) in the presence of plate-bound anti-mouse-CD3 mAb (8 μg/ml, clone 145-2C11, BioXcell) and anti-mouse-CD28 (8 μg/ml, clone 37.51, BioXcell), in RPMI medium, supplemented with 10% fetal bovine serum, GlutaMAX, penicillin/streptomycin, and 2.5 μM β-mercaptoethanol. After 3 days, cells were removed from stimuli and further cultured for 2 additional days in IL-2 (50 U/mL,) and the same cytokine combination used at day 0. Phenotype was quantified by FACS at day 5 of the in vitro culture.

[4] = tested on: rhesus macaque naïve CD4 T cells; assay: Non-human primate (NHP) differentiation; type: cell-based, macaca mulatta (rhesus macaques); details: 5 days
Description: CD4^+ T cells from rhesus macaque PBMCs were enriched using the Non-Human Primate CD4^+ T Cell Isolation Kit (Miltenyi Biotec). Naïve CD4^+ T cells were isolated by FACS sorting as CD4^+CD45RA^+CD95^−CD28^+CCR7^+ cells. Naïve CD4^+ T cells (7.5×10^4 cells/well) were activated by plate-bound anti-human-CD3 and anti-human-CD28 (both at 5 μg/ml, BD) and cultured with recombinant human/mouse/rat activin A (50 ng/ml) and/or recombinant human IL-12 (5 ng/ml) for 5 days. Phenotype was assessed by flow cytometry.

[5] = tested on: SMAD2/3; assay: Analysis of phosphorylated SMAD2/3 in blood naïve CD4 T cells; type: cell-based, human
Excerpt: as §1

activin A: commercial recombinant cytokine, homodimer of the INHBA gene product (inhibin beta A)
P-SMAD induction ([1]; tonsil PD-1intCXCR5int mTfh cells): moderate but specific P-SMAD induction
P-SMAD induction ([1]; tonsil fully mature GC Tfh cells): did not
phosphorylation of SMAD2/3 ([1]; tonsil naïve CD4 T cells cultured with activin A): quickly phosphorylated SMAD2/3
LIF and LTα expression ([2]; CD4 T cells cultured with activin A): enhanced CD4 T cell expression of LIF and LTα
PRDM1 (BLIMP1) expression ([2]; day 3 differentiated cells): express less PRDM1 (Blimp1)
PRDM1 (BLIMP1) expression ([2]; day 3 differentiated cells, listed as Activin A): significant downregulation of PRDM1
ITGβ7 expression ([2]; day 3 differentiated cells, flow cytometry): downregulated in the presence of activin A
in vitro mouse Tfh differentiation ([3]; activin A in the presence of IL-6): did not result in activin A mediated promotion of in vitro mouse Tfh differentiation
PD-1 and CXCR5 expression ([3]; mouse CD4 T cells, activin A alone or with IL-12, C57BL/6 and BALB/c): did not have any relevant effect on PD-1 and CXCR5 expression by mouse CD4 T cells; also recorded: No relevant CXCR5 and PD-1 induction
induction of PD-1+CXCR5+ cells [4]: Potent induction of PD-1^+CXCR5^+ cells; also recorded: potent CXCR5 and PD-1 inducer for both human and non-human primate activated naïve CD4 T cells
phosphorylation of SMAD2/3 ([5]; blood naïve CD4 T cells, activin A 400 ng/ml): Phosphorylation of SMAD2/3 in naïve human CD4 T cells in response to activin A was observed
induction of SMAD-independent pathways ([5]; downstream of activin A, time points analyzed): No relevant induction of SMAD-independent pathways
